From article PMC10096180, “Half-Sandwich Type Platinum-Group Metal Complexes of C-Glucosaminyl Azines: Synthesis and Antineoplastic and Antimicrobial Activities” (Molecules, 2023)

Tests used:
[1] = Distribution coefficient (logD), n-octanol-PBS; assay type: physicochemical; settings: n-octanol-PBS (pH = 7.4) system
Method: The logD values of the newly synthesized complexes were determined according to a procedure described in our previous publications. page 64: Ir-7b +1.17 Rh-7b +1.41 Ru-7c +1.31 Os-7c +1.59 Ir-7c +1.40 Rh-7c +1.13 Ru-7d +1.26 Os-7d +1.42 Ir-7d +1.30 Rh-7d +1.04 Ru-7e +2.22 Os-7e +2.21 Ir-7e +1.39 Rh-7e +1.66 *logD was determined in an n-octanol-PBS (pH = 7.4) system 64 (14 pictures or pasted objects on this page, not shown here)

A2780 cells [2] = assay: SRB binding assay, cytostasis, 48 h treatment; assay type: cell-based; settings: up to 100 μM, ND = not detectable
Method: (§1) The complexes described above are intended to replace registered platinum complexes. Platinum complexes constitute the core of the chemotherapy regimen used in ovarian cancer; therefore, we used a cellular model of ovarian cancer, A2780, and primary human dermal fibroblasts as models of non-transformed cells (controls). For the characterization of the complexes, we used an MTT assay after 4 h of treatment for the detection of early toxicity and an SRB assay 48 h after treatment for the detection of cytostasis.
An SRB assay measures protein content of cells in correlation with the cell number in an assay well and can therefore be used to assess cell proliferation or long-term cytostasis. Cells were seeded in 96-well plates the day before the assay. Cells were treated with the compounds for 48 h. Then medium was removed, and cells were fixed with 10% trichloroacetic acid. Fixed cells were washed in distilled water 3 times, followed by staining with SRB (0.4 m/V% dissolved in 1% acetic acid) for 10 min. Stained cells were washed in 1% acetic acid 5 times; acetic acid was removed, and cells were left to dry. Protein-bound SRB was released by adding 100 μL 10 mM Tris base. Plates were measured in a plate photometer (Thermo Scientific Multiscan GO spectrophotometer, Waltham, MA, USA) at 540 nm. On each plate, wells were designed to contain vehicle-treated cells. In calculations, the readings for these wells were considered to be 1, and all readings were expressed relative to these values.
(§2) Statistical analysis was performed using version 8.0.1 of GraphPad Prism. Values were tested for normal distribution using the Shapiro–Wilk normality test. Nonlinear regression was performed using the built-in “[Inhibitor] vs. response—Variable slope (four parameters), least square fit” utility of GraphPad, which yielded IC50 and Hill slope values if the sigmoid curves reached a plateau of inhibition and there was no decrease between two subsequent data points or when inhibition was over 90%. In other cases, the percentage of inhibition was taken for the maximum concentration (100 μM).

A2780 cells [3] = assay: MTT reduction assay, early toxicity, 4 h treatment; assay type: cell-based; settings: inhibition at maximum concentration (100 μM) where no plateau, ND = not detectable; for inhibition at 100 µM: Homo sapiens, read-out: A2780 MTT Max Inhibition
Method: as §1
An MTT reduction assay was measures the activity of mitochondrial complex I and can be used to detect toxicity. The assay was performed in a manner similar to that described in [84]. Briefly, cells were plated in 96-well plates the day before the assay. Cells were treated with the compounds for 4 h; then, MTT was added to a 0.5 mg/mL final concentration, and cells were incubated at 37 °C in a cell incubator for 40–60 min as a function of the cell line being assessed. Culture medium was removed, the reduced MTT dye was dissolved in dimethyl-sulfoxide, and plates were measured in a plate photometer (Thermo Scientific Multiscan GO spectrophotometer, Waltham, MA, USA) at 540 nm. On each plate, wells were designed to contain vehicle-treated cells. In calculations, the readings for these wells were considered to 1, and all readings were expressed relative to these values.
as §2

Compound | logD [1] | A2780 SRB Max Inhibition (A2780 cells [2]) | A2780 MTT Max Inhibition (A2780 cells [3]) | inhibition at 100 µM (A2780 cells [3]) [%]
Cc1ccc(C(C)C)cc1.F[P-](F)(F)(F)(F)F.N[C@@H]1[C@@H](OC(=O)c2ccccc2)[C@H](OC(=O)c2ccccc2)[C@@H](COC(=O)c2ccccc2)O[C@H]1c1cnccn1.[Cl][Ru+] [Ru-7d] | 1.26 | 80.44% | 64.04% | 
N[C@@H]1[C@@H](OC(=O)c2ccccc2)[C@H](OC(=O)c2ccccc2)[C@@H](COC(=O)c2ccccc2)O[C@H]1c1ncccn1 [Complex 7c, 2-(2′-Amino-2′-deoxy-3′,4′,6′-tri-O-benzoyl-β-D-glucopyranosyl)pyrimidine] |  | 79.53% |  | 26.3
Cc1ccc(C(C)C)cc1.F[P-](F)(F)(F)(F)F.N[C@@H]1[C@@H](OC(=O)c2ccccc2)[C@H](OC(=O)c2ccccc2)[C@@H](COC(=O)c2ccccc2)O[C@H]1c1cnccn1.[Cl][Os+] [Os-7d] | 1.42 | 80.44% | 46.72% | 
Cc1c(C)c(C)[c-](C)c1C.F[P-](F)(F)(F)(F)F.N[C@@H]1[C@@H](OC(=O)c2ccccc2)[C@H](OC(=O)c2ccccc2)[C@@H](COC(=O)c2ccccc2)O[C@H]1c1cnccn1.[Cl][Rh+2] [Rh-7d] | 1.04 | 64.76% | 18.08% | 
N[C@@H]1[C@@H](O)[C@H](O)[C@@H](CO)O[C@H]1c1ccccn1 [Complex 5a, 2-(2′-Amino-2′-deoxy-β-D-glucopyranosyl)pyridine] |  | did not exhibit any biological activity | did not exhibit any biological activity | 
N[C@@H]1[C@@H](OC(=O)c2ccccc2)[C@H](OC(=O)c2ccccc2)[C@@H](COC(=O)c2ccccc2)O[C@H]1c1cnccn1 [Complex 7d, 2-(2′-Amino-2′-deoxy-3′,4′,6′-tri-O-benzoyl-β-D-glucopyranosyl)pyrazine] |  | 73.37% |  | 18.1
Cc1ccc(C(C)C)cc1.F[P-](F)(F)(F)(F)F.N[C@@H]1[C@@H](O)[C@H](O)[C@@H](CO)O[C@H]1c1ccccn1.[Cl][Ru+] [Ru-5a] | −1.91 | did not exhibit any biological activity | did not exhibit any biological activity | 
Cc1c(C)c(C)[c-](C)c1C.F[P-](F)(F)(F)(F)F.N[C@@H]1[C@@H](OC(=O)c2ccccc2)[C@H](OC(=O)c2ccccc2)[C@@H](COC(=O)c2ccccc2)O[C@H]1c1cnccn1.[Cl][Ir+2] [Ir-7d] | 1.30 | 80.44% | 38.71% | 
